# Data taken from patent US20080280926A1, “Phosphodiesterase Inhibitors” (priority 2003, published 2008).
row,melting point [°C],Compound
1,124 to 125,"CC(C)(C)C(=O)Nc1ncnc2c1nc(-n1cccn1)n2Cc1ccccc1 [Compound No. 1, N-(9-Benzyl-8-pyrazol-1-yl-9H-purin-6-yl)-2,2-dimethylpropionamide]"
2,189.5 to 199,"C=CCNC(=O)Nc1ncnc2c1nc(-n1cccn1)n2Cc1ccccc1 [Compound No. 12, 1-Allyl-3-(9-benzyl-8-pyrazol-1-yl-9H-purin-6-yl)-urea]"
